The values that follow come from PubChem BioAssay (NCI).

Where “and” joins values, the source holds several entries; their conditions need not be identical. Equal values may be shown once.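 Each compound was tested at five concentrations against cells in 96-well plates for 48 hours. At the GI50, growth is halved. The concentration for full growth arrest is given as TGI.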 A value given as a limit tells only on which side of the number the result lay.

The subject of this test is MDA-MB-468 breast. The test is described as follows: growth of human tumour cells (NCI), 48 h.
Take `COc1ccc(-c2[nH]ncc2Nc2cc(OC)c(OC)c(OC)c2)cc1`: the GI50 was 0.435 µM and the TGI is 52.3 µM.

As for `CCS(=O)(=O)c1ccc(OC)c(Nc2ncc(-c3cccc(F)c3)o2)c1`, the GI50 was more than 25 µM and the TGI was more than 25 µM.

On to `COC(=O)CC1=C(C)/C(=C/c2[nH]c(-c3ccc[nH]3)cc2OC)N=C1C`, for which the GI50 is 0.162 µM and the TGI was found to be 1.76 µM.

`Cc1c(C(N)=O)sc2nc(C)n(/N=c3\scc(-c4ccccc4)n3Cc3ccccc3)c(=O)c12`: the GI50 is 2.65 µM and the TGI is more than 100 µM.

As for `O=C(CI)Nc1ccc(Br)cc1`, the GI50 was 1.83 µM and the TGI was found to be 3.74 µM.

As for `CC(=O)c1c(C)c2cnc(Nc3ccc(N4CCNCC4)cn3)nc2n(C2CCCC2)c1=O`, the GI50 was 3.54 µM and the TGI worked out at 15.7 µM.

On to `COC(=O)c1cc(-c2ccc(S(C)(=O)=O)cc2)[nH]c1N/N=C/c1c(Cl)cccc1Cl`, for which the GI50 was 4.27 µM and the TGI is more than 100 µM.

Take `O=C1NC(=NCCc2ccc(Br)cc2)S/C1=C\c1ccc2ncccc2c1`: the GI50 is more than 16.5 µM and the TGI was more than 25 µM.

With `C=C(C)C(=O)Nc1ccc(-c2c(-c3ccc(Oc4nccc(C)n4)c(F)c3)c3c(N)ncnc3n2C)cc1`, the GI50 is 1.83 µM and the TGI turned out to be 6.83 µM.

`CCCCCCCCN=C(NCCCCCCCC)SCc1cccc2ccccc12`: the GI50 is 1.41 µM and the TGI was 2.81 µM.

On to `O=C1C(Cl)=C(NCCCN(CCCNC2=C(Cl)C(=O)c3ccccc3C2=O)C2=C(Cl)C(=O)c3ccccc3C2=O)C(=O)c2ccccc21`, for which the GI50 was 1.21 µM and the TGI turned out to be 2.87 µM.

Regarding `COc1ccc2c(c1)nnc1c3cccnc3[nH]c21`, the GI50 was 0.0667 µM and 0.0556 µM; the TGI is 0.237 µM and 1.1 µM.

In the case of `O=C1/C(=C/c2ccc([N+](=O)[O-])o2)Oc2ccc(Cl)cc21`, the GI50 was 1.55 µM and the TGI was 3.45 µM.

With `COc1cc(-c2ccc[nH]2)[nH]c1/C=C1\N=C(C)C(CC(=O)OCC(C)(C)C)=C1C`, the GI50 was 0.082 µM and the TGI was determined as 1.19 µM.

With `O=C1/C(=C/c2ccc(C(F)(F)F)cc2)COc2ccc(O)c(O)c21`, the GI50 is 1.53 µM and the TGI worked out at 2.99 µM.

In the case of `CCc1c(C)c2cc(-n3c(-c4ccc(OC)cc4)csc3=N)c(O)c(C)c2oc1=O`, the GI50 was 1.93 µM and the TGI turned out to be 7.76 µM.

`CN(C)c1ccc2[nH]c3c(C(N)=O)cc(=O)c(=O)c=3oc2c1`: the GI50 is 2.02 µM and the TGI came to 5.52 µM.

`COc1cc(C(=O)n2nc(N)c3c(C)cc(C)nc32)cc(OC)c1OC`: the GI50 was 2.92 µM and the TGI was more than 100 µM.

On to `COc1ccc2c(c1)-c1c(c3cc(OC)ccc3n(CCN(C)C)c1=O)C2=O`, for which the GI50 was 1.75 µM and the TGI was 9.19 µM.

Consider `Cc1cc(N2CCOCC2)nc(NCc2cc(Nc3ccnc4cc(Cl)ccc34)ccc2F)n1`, for which the GI50 was 1.89 µM and the TGI was 3.91 µM.

On to `COc1ccc([I+]c2ccc(OC)cc2)cc1`, for which the GI50 is 0.256 µM and the TGI was found to be 17.9 µM.

As to `CC/C=C\C[C@H]1C/C=C2/C(=O)C(Cl)=C[C@@H]2C/C=C\CCCC(=O)O1`, the GI50 is 0.309 µM and the TGI came out at 0.869 µM.

On to `Cc1cc(N(CCNc2ccnc3cc(Cl)ccc23)Cc2ccc3c(c2)OCO3)nc(N2CCCC2)n1`, for which the GI50 was 1.47 µM and the TGI came to 3.74 µM.

For the compound `COc1ccc2nc3ccccc3c(NCCNCC(C)O)c2c1` (stereo not given), the GI50 is 0.3 µM and the TGI amounted to 0.953 µM.

With `CC1=C[C@@H]2c3c(c(O)c(O)c4oc5cc(O)cc(O)c5c(=O)c34)[C@@H](c3cc(O)c(O)c4oc5cc(O)cc(O)c5c(=O)c34)[C@@H]2C(C)(C)C1`, the GI50 was 3.35 µM and the TGI was found to be 16.2 µM.

With `COc1cc(C2NC(=O)C(C#N)=C(Nc3cccc(C)c3)S2)ccc1O` (stereo not given), the GI50 is more than 100 µM and the TGI is more than 100 µM.

Take `CNC(=O)c1cc(Oc2ccc(NC(=O)Nc3cc(C(C)(C)C)nn3-c3ccc4ncccc4c3)c(F)c2)ccn1`: the GI50 is 1.95 µM and 2.43 µM; the TGI was 4.53 µM and 5.19 µM.

Consider `C[C@]12CCC(=O)C[C@@H]1CC[C@@H]1[C@@H]2CC[C@]2(C)[C@@H](OC(=O)N(CCCl)N=O)CC[C@@H]12`, for which the GI50 was 1.06 µM and the TGI came out at 4.72 µM.

Regarding `Oc1[nH]c2ccccc2c1C=Nc1ccc(-n2cncn2)cc1`, the GI50 is more than 20.7 µM and the TGI is more than 25 µM.

Regarding `CCOCCOCCOCCOCCOCCOCCOCCOCCOCCO` (tested in a mixture with another compound), the GI50 was 0.372 µM and the TGI came to 2.18 µM.

`CCC(=O)Nc1nnc(Cc2ccc(OC)c(OC)c2)s1`: the GI50 was more than 100 µM and the TGI is more than 100 µM.

Consider `CNc1cc(-c2cccc(OC(F)(F)F)c2)nc2ccc(N3CCCC3)cc12`, for which the GI50 is 2.11 µM and 1.83 µM; the TGI was 3.87 µM and 3.49 µM.

For `COc1cc2nc(-c3ccc(C(F)(F)F)cc3)cc(OCCCNCC3CCCO3)c2cc1OC` (stereo not given), the GI50 was 8.89 µM and the TGI was 23.3 µM.

On to `CCN1C(=O)N(CC)C2C1N=C(SC)N2/N=C/C=C/c1ccccc1OC` (stereo not given), for which the GI50 was 0.256 µM and the TGI was found to be 0.729 µM.

Take `C(=N\Nc1ccc2ccccc2n1)/c1ccccn1`: the GI50 was 0.313 µM and the TGI stood at 2.46 µM.

For `S=C(SSC(=S)N1CCCCC1)N1CCCCC1`, the GI50 was 16.9 µM and the TGI came out at 69.8 µM.

Regarding `Fc1ccc(Nc2nc(Nc3ccc(-c4nc5ccccc5[nH]4)cc3)c3cn[nH]c3n2)cc1`, the GI50 was 1.91 µM and the TGI was 3.74 µM.

For the compound `CSc1nc2c(c(=O)n1C)C(c1ccccc1)C1=C(N2)/C(=C/c2ccccc2)CCC1` (stereo not given), the GI50 is 2.84 µM and the TGI is 29.7 µM.

Consider `CC(C)(C)[Si](C)(C)OC1[C@@H](COC(=O)NC(=O)CCl)O[C@@H](n2cnc3c(N)ncnc32)[C@H]1O[Si](C)(C)C(C)(C)C` (stereo not given in full), for which the GI50 is 3.84 µM and the TGI amounted to 11.1 µM.

As to `COc1cnccc1Nc1nc(-c2nn(Cc3c(F)cc(OCCO)cc3F)c3ccccc23)ncc1OC`, the GI50 is 2.26 µM and the TGI was 10.6 µM.

On to `CN1CCN(c2ccc(NC3=CC(=O)c4ncncc4C3=O)cc2)CC1`, for which the GI50 is 0.189 µM and the TGI stood at 0.416 µM.

Take `COc1ccc(-c2c(-c3ccc(C#N)c(F)c3)nc(N3CCC(N)CC3)n(C)c2=O)cc1F`: the GI50 is 7.91 µM and the TGI was found to be 23.2 µM.

On to `O=C1Cc2cc(CCN3CCNCC3)c(Cl)cc2N1`, for which the GI50 is 2.24 µM and the TGI is 7.42 µM.

With `CC12O[C@H](C[C@@H](OC(=O)CCC(=O)O)[C@H]1O)n1c3ccccc3c3c4c(c5c6ccccc6n2c5c31)C(=O)NC4=O`, the GI50 was 1.72 µM and the TGI came to 10.8 µM.

As for `CCOC(=O)/C=C1/SC(=Nc2ccc(C#N)cc2)N(Cc2ccco2)C1=O`, the GI50 was 2.97 µM and the TGI turned out to be 14.2 µM.
